Source: patent US11560388B2, “Anthelmintic aza-benzothiophene and aza-benzofuran compounds” (Boehringer Ingelheim Vetmedica GmbH, priority 2019, dated 2023)

How the values were obtained:
[1] = system: L1 Haemonchus contortus larvae; test: Screening of activity against Haemonchus contortus (larval development L1 to L3, dose response); format: cell-based; conditions: 96 h, read-out: EC50 (development of the larvae from L1 to L3)
[2] = system: Dirofilaria immitis; test: In vivo efficacy against Dirofilaria immitis in immunodeficient NSG mice; conditions: vs control group
[3] = system: Haemonchus contortus; test: In vivo efficacy against Haemonchus contortus in Mongolian jird (Meriones unguiculatus)
[4] = system: Trichostrongylus colubriformis; test: In vivo efficacy against Trichostrongylus colubriformis in Mongolian jird (Meriones unguiculatus)
[5] = system: microfilariae of Dirofilaria immitis; test: Screening of activity against microfilaria of Dirofilaria immitis (motility, dose response); format: cell-based; conditions: 72 h, read-out: EC50 (motility of the microfilaria)
[6] = Study #2, NSG mice, 25 mg/kg oral
[7] = Study #2, NSG mice, 50 mg/kg oral
[8] = Study 3, jird, 25 mg/kg oral gavage
[9] = Study 4, jird, 5 mg/kg oral gavage
[10] = Study #3, NSG mice, 25 mg/kg oral
[11] = Study 4, jird, 25 mg/kg oral gavage
[12] = Study 2, jird, 25 mg/kg oral gavage
[13] = Study 1, jird, 25 mg/kg oral gavage, necropsy 3 days after treatment
[14] = Study 1, jird, 10 mg/kg, positive control
[15] = Study 2, jird, 10 mg/kg, positive control
[16] = Study 3, jird, 10 mg/kg, positive control
[17] = Study 4, jird, 10 mg/kg, positive control

Structure (SMILES): O=C(N[C@H]1CCOc2ccccc21)c1sc2c(-c3cc(F)cc(F)c3)cccc2c1C1=CCOCC1 [Compound 102-1]
- EC50 [1]: 100 to 10000 nM

Structure (SMILES): C=C(C)c1c(C(=O)N[C@H]2CCOc3ccccc32)sc2c(-c3cc(F)cc(F)c3)ccnc12 [Compound 119]
- EC50 [1]: 100 to 10000 nM
- % Reduction worms [2, 6]: 67%
- % Reduction worms [2, 7]: 37%

Structure (SMILES): CC(C)c1c(C(=O)N[C@H]2CCOc3ccccc32)sc2c(-c3cc(F)cc(F)c3)ccnc12 [Compound 120]
- % Reduction worms [2, 6]: 47%
- % Reduction worms [2, 7]: 33%

Structure (SMILES): Cc1cc(F)cc(C)c1-c1ccnc2c(C(C)C)c(C(=O)N[C@H]3CCOc4ccccc43)sc12 [Compound 201, N-[(4S)-3,4-dihydro-2H-1-benzopyran-4-yl]-7-(4-fluoro-2,6-dimethylphenyl)-3-isopropylthieno[3,2-b]pyridine-2-carboxamide]
- EC50 [1]: 100 to 10000 nM

Structure (SMILES): CC(C)c1c(C(=O)N[C@H]2CCOc3ccccc32)sc2c(-c3cc(F)cc(F)c3)c(F)cnc12 [Compound 204]
- % Reduction worms ([2]; Study #1, NSG mice, 50 mg/kg oral at Days 1, 15, 30 post-infection): 65%
- % Reduction H. contortus [3, 8]: 100.0%
- % Reduction H. contortus [3, 9]: 50.1%
- % Reduction T. columbriformis [4, 8]: 100.0%
- % Reduction T. columbriformis [4, 9]: 22.2%

Structure (SMILES): O=C(N[C@H]1CCOc2ccccc21)c1sc2c(-c3cc(F)cc(F)c3)ccnc2c1C(F)F [Compound 205]
- EC50 [1]: 100 to 10000 nM
- EC50 [5]: 100 to 10000 nM

Structure (SMILES): CC(C)c1c(C(=O)N[C@H]2CCOc3ccccc32)sc2c(-c3cccc(F)c3)ccnc12 [Compound 207]
- % Reduction worms [2, 10]: 55%

Structure (SMILES): CC(C)(C)c1c(C(=O)N[C@H]2CCOc3ccccc32)sc2c(-c3cc(F)cc(F)c3)ccnc12 [Compound 210]
- % Reduction worms [2, 10]: 55%
- % Reduction H. contortus [3, 8]: 100.0%
- % Reduction T. columbriformis [4, 8]: 100.0%

Structure (SMILES): CC(C)c1c(C(=O)N[C@H]2CCOc3ccc(F)cc32)sc2c(-c3cc(Cl)cc(Cl)c3)ccnc12 [Compound 211]
- % Reduction worms ([2]; Study #1, NSG mice, 25 mg/kg oral at Days 1, 15, 30 post-infection): 61%
- % Reduction H. contortus [3, 8]: 100.0%
- % Reduction T. columbriformis [4, 8]: 100.0%

Structure (SMILES): CC(C)(F)c1c(C(=O)N[C@H]2CCOc3ccccc32)sc2c(-c3cc(Cl)cc(Cl)c3)ccnc12 [Compound 212]
- % Reduction worms ([2]; Study #1, NSG mice, 23 mg/kg (table) oral at Days 1, 15, 30 post-infection): 13%

Structure (SMILES): C[C@@H]1C[C@H](C)CN(c2ccnc3c(N4CCOCC4)c(C(=O)N[C@H]4CCOc5ccccc54)sc23)C1 [Compound 217]
- EC50 [5]: 100 to 10000 nM

Structure (SMILES): CC(C)c1c(C(=O)N[C@H]2CCOc3ccccc32)sc2c(C3CCCCC3)ccnc12 [Compound 223]
- EC50 [1]: 100 to 10000 nM
- EC50 [5]: < 10 nM

Structure (SMILES): O=C(N[C@H]1CCOc2ccccc21)c1sc2c(-c3cc(F)cc(F)c3)ccnc2c1C(F)(F)C(F)(F)F [Compound 238]
- EC50 [1]: 100 to 10000 nM
- EC50 [5]: < 10 nM

Structure (SMILES): C=C(C)c1c(C(=O)N[C@H]2CCOc3ccccc32)sc2c(-c3cc(F)cc(F)c3)cnnc12 [Compound 239-INT-1]
- EC50 [1]: 100 to 10000 nM

Structure (SMILES): CC(C)c1c(C(=O)N[C@H]2CCOc3ccccc32)sc2c(C3(F)CCCCC3)ccnc12 [Compound 255, N-[(4S)-3,4-dihydro-2H-1-benzopyran-4-yl]-7-(1-fluorocyclohexyl)-3-isopropylthieno[3,2-b]pyridine-2-carboxamide]
- EC50 [1]: 100 to 10000 nM

Structure (SMILES): CC(C)c1c(C(=O)N[C@H]2CCOc3ccc(F)cc32)sc2c(-c3cc(F)cc(F)c3)ccnc12 [Compound 257]
- % Reduction worms [2, 10]: 45%

Structure (SMILES): CC(=O)c1c(C(=O)N[C@H]2CCOc3ccc(F)cc32)sc2c(-c3cc(Cl)cc(Cl)c3)ccnc12 [Compound 259-4]
- EC50 [5]: 100 to 10000 nM

Structure (SMILES): CC(C)(F)c1c(C(=O)N[C@H]2CCOc3ccc(F)cc32)sc2c(-c3cc(Cl)cc(Cl)c3)ccnc12 [Compound 259]
- % Reduction H. contortus [3, 11]: 100.0%
- % Reduction T. columbriformis [4, 11]: 99.5%

Structure (SMILES): CC(C)c1c(C(=O)N[C@H]2CCOc3ccc(F)cc32)sc2c(-c3cc(F)cc(F)c3)c(F)cnc12 [Compound 260]
- % Reduction H. contortus [3, 11]: 23.5%
- % Reduction T. columbriformis [4, 11]: 45.8%

Structure (SMILES): CC(C)(O)c1c(C(=O)N[C@H]2CCOc3ccccc32)sc2c(-c3cc(Cl)cc(Cl)c3)c(F)cnc12 [Compound 263-8]
- EC50 [1]: < 100 nM
- EC50 [5]: < 10 nM
- % Reduction H. contortus [3, 12]: 99.8%
- % Reduction H. contortus [3, 9]: 99.8%
- % Reduction T. columbriformis [4, 12]: 100.0%
- % Reduction T. columbriformis [4, 9]: 99.9%

Structure (SMILES): CC(C)(F)c1c(C(=O)N[C@H]2CCOc3ccccc32)sc2c(-c3cc(Cl)cc(Cl)c3)c(F)cnc12 [Compound 263]
- % Reduction H. contortus [3, 13]: 100.0%
- % Reduction T. columbriformis [4, 13]: 100.0%

Structure (SMILES): CC(C)(F)c1c(C(=O)N[C@H]2CCOc3ccccc32)sc2c(-c3cc(Cl)cc(Cl)c3)cncc12 [Compound 264, 7-(3,5-dichlorophenyl)-N-[(4S)-3,4-dihydro-2H-1-benzopyran-4-yl]-3-(2-fluoropropan-2-yl)thieno[3,2-c]pyridine-2-carboxamide]
- EC50 [1]: < 100 nM
- EC50 [5]: < 10 nM

Structure (SMILES): CC(C)(O)c1c(C(=O)N[C@H]2CCOc3ccccc32)sc2c(-c3cc(Cl)cc(Cl)c3)cncc12 [Compound 264-0, 7-(3,5-dichlorophenyl)-N-[(4S)-3,4-dihydro-2H-1-benzopyran-4-yl]-3-(2-hydroxypropan-2-yl)thieno[3,2-c]pyridine-2-carboxamide]
- EC50 [1]: < 100 nM

Structure (SMILES): CC(C)(O)c1c(C(=O)N[C@H]2CCOc3ccccc32)sc2c(-c3ccnc(Cl)c3)ccnc12 [Compound 268-4]
- EC50 [1]: 100 to 10000 nM

Structure (SMILES): C=C(C)c1c(C(=O)N[C@H]2CCOc3ccccc32)sc2c(-c3cc(Cl)cc(Cl)c3)ccnc12 [Compound 285]
- % Reduction H. contortus [3, 13]: 100.0%
- % Reduction T. columbriformis [4, 13]: 100.0%

Structure (SMILES): CC(C)c1c(C(=O)N[C@H]2CCOc3ccccc32)sc2c(-c3cc(F)cc(F)c3)c(Cl)cnc12 [Compound 310]
- EC50 [1]: < 100 nM
- EC50 [5]: 100 to 10000 nM

Structure (SMILES): c1ccc([C@H]2CN3CCSC3=N2)cc1 [Levamisole, levamisole, reference compound]
- % Reduction H. contortus [3, 14]: 98.4%
- % Reduction H. contortus [3, 15]: 100.0%
- % Reduction H. contortus [3, 16]: 100.0%
- % Reduction H. contortus [3, 17]: 99.8%
- % Reduction T. columbriformis [4, 14]: 89.1%
- % Reduction T. columbriformis [4, 15]: 96.4%
- % Reduction T. columbriformis [4, 16]: 100.0%
- % Reduction T. columbriformis [4, 17]: 72.2%
